From ChEMBL document CHEMBL1133783, “Diastereoselective synthesis, activity and chiral stability of cyclic alkoxyketone inhibitors of cathepsin K” (Bioorg Med Chem Lett, 2001) come the findings set out here.

Molecules are shown by their SMILES.

Assay [1] has as its target T1, Cathepsin K (Homo sapiens, UniProt P43235).
T1 sequence (P43235 whole entry): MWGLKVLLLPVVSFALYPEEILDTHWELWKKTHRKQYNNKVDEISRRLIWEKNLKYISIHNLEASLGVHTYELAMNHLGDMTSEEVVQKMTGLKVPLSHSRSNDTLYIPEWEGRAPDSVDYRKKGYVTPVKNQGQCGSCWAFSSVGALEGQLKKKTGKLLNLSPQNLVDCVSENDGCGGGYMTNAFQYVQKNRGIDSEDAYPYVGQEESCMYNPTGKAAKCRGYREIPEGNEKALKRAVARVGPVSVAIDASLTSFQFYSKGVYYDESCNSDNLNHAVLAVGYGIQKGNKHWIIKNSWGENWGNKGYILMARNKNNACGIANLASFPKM
The assay can be described thus: Inhibition of cathepsin K.

For assay [2], the target named is T1, Cathepsin K. The assay can be described thus: Inhibitory activity was evaluated against cathepsin K.

The term Ki denotes a measure of affinity in units of concentration, obtained from inhibition or displacement. Read a low Ki as a stronger hold on the target. In the case of `CC(C)C[C@H](NC(=O)c1cc2ccccc2s1)C(=O)N[C@H]1COCC1=O`, the Ki at Cathepsin K [1] is 7 nM.

Turning to `CC(C)C[C@H](NC(=O)c1ccc2ccccc2c1)C(=O)NC1CCOCC1=O` (single isomer, unassigned; diastereomer 2), on Cathepsin K [1], the Ki is 380 nM.

`CC(C)C[C@H](NC(=O)c1ccc2ccccc2c1)C(=O)NC1CCOCC1=O` (single isomer, unassigned; diastereomer 1) returned a Ki at Cathepsin K [1] of 32 nM.

With `CC(C)C[C@@H](NC(=O)c1ccc2ccccc2c1)C(=O)N[C@@H]1COCC1=O`, on Cathepsin K [1], the inhibition constant (Ki) was 470 nM.

Molecule `CC(C)C[C@H](NC(=O)c1ccc2ccccc2c1)C(=O)N[C@H]1COCC1=O` yielded a Ki on Cathepsin K [1] of 14 nM.

In turn, `CC(C)C[C@@H](NC(=O)c1cc2ccccc2s1)C(=O)N[C@@H]1COCC1=O` displayed a Ki at Cathepsin K [1] of 68 nM.

`CC(C)C[C@@H](NC(=O)c1ccc2ccccc2n1)C(=O)N[C@@H]1COCC1=O` gave a Ki at Cathepsin K [1] of 590 nM.

At Cathepsin K [1], `CC(C)C[C@H](NC(=O)c1cc2ccccc2s1)C(=O)NC1CCOCC1=O` (single isomer, unassigned; diastereomer 1) yielded a Ki of 8 nM.

At Cathepsin K [1], `CC(C)C[C@H](NC(=O)c1cc2ccccc2s1)C(=O)NC1CCOCC1=O` (single isomer, unassigned; diastereomer 2) came in with a Ki of 70 nM.

On to `COc1ccc(CC(=O)N[C@@H](CC(C)C)C(=O)NC2CCOCC2=O)cc1OC` (some centres not stated), for which the results for the Ki at Cathepsin K [2] and on Cathepsin K [1] were 770 nM and 10 nM, respectively.

Consider `CC(C)C[C@H](NC(=O)c1ccc2ccccc2n1)C(=O)N[C@H]1COCC1=O`, for which the Ki on Cathepsin K [1] amounted to 15 nM.
